Experimental data reported in the NIST ThermoML archive (doi:10.1016/j.jct.2018.12.037).
Numbers after ± are expanded uncertainties.

Columns and labels:
[1] = xn = mol fraction of the nth substance listed; conditions: 100 kPa, Liquid, Vibrating tube method, x1 = 0.52
[2] = refractive index (Na D-line) (dimensionless); xn = mol fraction of the nth substance listed; conditions: 293.15 K; 100 kPa; Liquid; Standard Abbe refractometry; x1 = 0.52

C[C@@H]1CC[C@H](C)O1 [cis-2,5-dimethyltetrahydrofuran] + C[C@@H]1CC[C@@H](C)O1
mass density ([1]; 273.15 K): 848.22 ± 2.3 kg/m3 | mass density ([1]; 283.15 K): 838.53 ± 2.3 kg/m3 | mass density ([1]; 293.15 K): 828.71 ± 2.3 kg/m3 | mass density ([1]; 298.15 K): 823.89 ± 2.3 kg/m3 | mass density ([1]; 303.15 K): 818.91 ± 2.3 kg/m3 | refractive index [2]: 1.4043 ± 0.0004
